# Measured values taken from article PMC3057995, “Potent Anti-Tumor Effect Generated by a Novel Human Papillomavirus (HPV) Antagonist Peptide Reactivating the pRb/E2F Pathway” (PLoS ONE, 2011).
# What was measured:
# SiHa tumor xenografts = assay: H/E staining and BrdU-incorporation of tumor tissues; type: in vivo, mouse (Balb/C-nu/nu); conditions: 400 µg/mouse group
# Procedure: Three or two mice bearing tumor of each group were prelabeled with intra-peritoneal injection of BrdU (100 mg/kg, Sigma-Aldrich, Inc., Aaint Louis, MO, USA) 15 hours before sacrificed. Tumor specimens were then prepared as formalin-fixed, paraffin-embedded sections for hematoxylin-eosin staining, BrdU and pRb immunohistochemical staining as previously described, [57]. In brief, immunostaining was performed on formalin-fixed, paraffin-embedded sections using the anti-pRb monoclonal and anti- BrdU monoclonal antibodies, respectively. Before the application of the primary antibodies, an antigen retrieval technique was performed. […] The antibodies were detected by means of the Strept Avidin-Biotin Complex (SABC) method (Wuhan Boster Biological Technology, Ltd., Wuhan, P.R. China.) according to the manufacturer's instructions. Stained slides were examined under a Nikon ECLIPSE TE2000-U microscope (Nikon Corporation, Tokyo, Japan) and images were collected and analyzed with Pixera Penguin 600CL DiRactor™ (Pixera Corporation, Los Gatos, CA, USA). BrdU or pRb-positive cells were counted in each section. The total cell number was determined by nuclear staining with hematoxylin. At least 1000 total cells for each case were counted.
# [1] = test system: mutated cyclin A and E1 promoters; assay: Luciferase reporter assay, E2F-site-mutated promoters (pMCCNA-Luc, pMCCNE1-Luc), SiHa; type: cell-based; conditions: 80 µM, 24 h, E2F binding sites mutated
# From the text: HPV16E7-pEYFP plasmid was constructed by sub-cloning the HPV16E7 gene into the EcoRI and BamHI sites of pEYFP-N1. The HPV16E7 gene was obtained by PCR from HPV16E7- pET28a (+) plasmid, which was maintained by our laboratory, using primers pE7N1f and pE7N1b. The pRb gene was obtained by nest PCR from HeLa cDNA using pRb1, pRb2, pRb3, pRb4 as primers. The PCR product was then inserted into the HindIII and Xho I sites of pcDNA3.1-His/V5-Topo. pA3-Luc-Cyclin D1 luciferase reporter plasmid containing the cyclin D1 promoter sequence −1745 to +134 was maintained by our laboratory. Both pCCNE1-Luc and pCCNA1-Luc were constructed by nest PCR to amplify fragments of cyclins E1 and A promoter sequences (cyclin E1: +3 to +594; cyclin A: −284 to +254) which include E2F binding sites, [47] from HeLa cDNA, respectively. Primers used in pCCNE1-Luc construction were P(CCE1), P(CCE2), P(CCE3), and P(CCE4), while primers P(CCA1), P(CCA2), P(CCA3), and P(CCA4) were used in PCCNA1-Luc construction. The PCR products were then cloned into the Kpn1 and Bgl II sites of the pGL3-enhancer (Promega, Madison, WI, USA) luciferase reporter plasmid. […]
# The reporter assays were performed using Bright-Glo™ Luciferase Assay System (Promega, Madison, WI, USA) according to the manufacturer's instructions. […] Each sample was determined in triplicate. […]
# SiHa cells [2] = assay: qRT-PCR, SiHa; type: cell-based; conditions: 80 µM
# Procedure: (§1) Total RNA was extracted from the cultured cells using TRIzol reagent (Invitrogen, Carlsbad, CA,USA) according to the manufacturer's instructions. qRT-PCR was used to confirm the expression levels of mRNAs. Reverse transcription and qPCR were performed according to the protocol of Reverse Transcriptase System™ and SYBR® premix Ex Taq™ (Perfect Real Time) (TaKaRa, Dalian, P.R. China) on the ABI 7300 Real Time PCR System (Applied Biosystems, Foster City, CA, USA) supplied with analytical software. β-actin mRNA levels were used for normalization. Each sample was determined in triplicate. The results represent means ± SE from three experiment runs.
# SiHa cells [3] = assay: MTT cell viability assay, SiHa; type: cell-based; conditions: HPV16-positive, 80 µM in Fig. 3C, medium replaced daily, A540, mean ± SE, at least two independent runs in sextuplicate
# Procedure: Cell viability was determined with an MTT assay. Briefly, the cells were seeded into 96-well plates at a density of 4–5×10^3 cells/well. The cells were allowed to recover for 24 h before the medium was replaced with DMEM supplemented with peptides at different concentrations. The solvent of the peptides was set as the control. The peptide-supplemented medium was replaced daily and the respective concentrations were maintained. The cells were subjected to an MTT cell proliferation assay at different time points. The plates were incubated at 37°C for 3 h with the addition of 20 µl/well MTT (5 mg/ml). Untransformed MTT in the solution was removed by aspiration. The formazan product was dissolved in DMSO, and plates were shaken vigorously at room temperature for 10–15 min to ensure complete solubilization. The optical density of the formazan solutions was measured by microplate reader at 540 nm.
# CaSki cells = assay: qRT-PCR, CaSki; type: cell-based; conditions: 80 µM
# Procedure: as §1
sequence,measurement,setting,value
SACPKGLDWCGG (C&C bridged by disulfide bonds) (disulfide) [Pep-7],H/E staining and BrdU uptake of tumor tissue,SiHa tumor xenografts,repressed tumor growth
same,"activities of mutated promoters (pMCCNA-Luc, pMCCNE1-Luc)",[1],negligible differences from those in control groups
same,"cyclins A, D1 and E1 RNA expression",SiHa cells [2],significantly reduced
same,pRb and HPV16E7 RNA levels,SiHa cells [2],not affected
same,cell proliferation (MTT),SiHa cells [3],repressed significantly by Pep-7 in a dose- and time-dependent manner
same,"cyclins A, D1 and E1 RNA expression",CaSki cells,significantly reduced
same,pRb and HPV16E7 RNA levels,CaSki cells,not affected
